Data as given in patent publication US20220050096A1, “ANALYTE-SENSITIVE PROBES AND CONTACT LENS FOR DIAGNOSIS OF OCULAR PATHOLOGIES” (University Of Maryland, Baltimore, priority 2020, published 2022).
Read-outs that look alike come from different tables or passages of the source. One block for each compound: values may come before it.

Experiments:
[1] = Intensity decay analysis of 1,8-ANS in various solvents and contact lenses; format: physicochemical
Procedure: (§1) Fluorescence Spectroscopic Measurements. Fluorescence intensities and intensity decays were measured using a Varian™ Eclipse 4 spectrofluorometer and a FluoTime300 instrument from PicoQuant™ (Berlin, Germany) and analyzed with the EasyTau™ software. The excitation source was a 473 nm laser diode with a repetition rate of 40 MHZ and a pulse width less than 100 ps. In other embodiments, the excitation source for SG-PL was at 495 nm from a Solea™ supercontinuum laser (PicoQuant™, Germany) and a 375 nm laser diode (PDL 375, PicoQuant™), a repetition rate of 40 MHz, and a pulse width less than 100 ps. Some intensity and lifetime measurements for SG-PL (as indicated) were performed using Alba V confocal fluorescence lifetime microscopy, FLIM (ISS, Urbana, Ill.), with excitation source of a 473 nm laser diode with a repetition rate of 40 MHz and a pulse width near 250 ps.
(§2) Intensity decays were measured at the emission maximum with the band of 10 to 20 nm, analyzed in terms of the multi-exponential model:
(§3) I(t)=Σαi exp(−t/ti) (equation 1)
(§4) where Σαi=1.0 and Σfi=1.0. The term fi=αi τi is proportional to the fractional contribution of each component to the total intensity decay. The term τi/Σαi τi is the fractional contribution to the steady state emission. Here, we use the amplitude-weighted lifetime given by
In polar solvents like water, the emission of many fluorophores is shifted to longer wavelengths. In addition, the intensities can be much lower and the lifetimes much shorter. […] Table 20, below. […]

[2] = cited from earlier work; for Lifetime (ns), Ca bound form / Q, Ca bound form: bound form (in parentheses)
[3] = cited from earlier work
[4] = cited from earlier work; remark: listed apart in the source
[5] = Intensity decay of Prodan in various solvents and contact lenses; format: physicochemical
Procedure: as §1, §2, §3, §4
The observed spectral properties of 1,8-ANS in lens are consistent with 1,8-ANS properties noticed in a non-polar environment. The probe 6-propionyl-2-dimethylaminonaphthalene (Prodan™), which is also highly sensitive to local polarity, also was used. […] In MyDay™ lenses the emission maximum is at a shorter wavelength than that in acetonitrile.

[6] = cited from earlier work; remark: listed apart in the source
[7] = Chloride quenching (Stern-Volmer) of SPQ-C3 in water; format: physicochemical
Procedure: Quenching by Chloride. Collisional quenching occurs, for example, when SPQ-C18 (also referred to as OD-MQB (N-Octadecyl-6-methoxyquinolinium bromide)) has a diffusion collision with a chloride ion. The intensities (I) and lifetimes (6) are analyzed using the Stern-Volmer equation,
where F0 and τ0 are the intensities and lifetimes in the absence of chloride, and K is the quenching constant and the inverse of the [Cl^−] needed for 50% quenching. For collisional quenching, the value of F0/F and τ0/τ are typically the same. In solution, in the absence of lenses, the value of K=kq τ0 can be used to calculate the biomolecular quenching constant kq and the quenching efficiency. In the lenses, the [Cl−] may not be the same as in the bulk solution, but kq in the lenses is estimated by assuming the same concentration of chloride around the SPQ moiety in the lenses and in bulk solutions.
This approach for SPQ-C18 in lenses is shown in both intensities and amplitude-weighted lifetimes (FIG. 35A and FIG. 35B). […] This behavior is different from SG-PL where the binding site can be saturated at high Na^+ concentrations. In contrast, quenching of OD-MQB, both intensity and lifetime, continue to decrease as the chloride concentration increased. The steady-state intensities and intensity decays can be used to calculate the bimolecular quenching constant kq. This value can be interpreted by comparison with quenching of a fluorophore in solution without any steric barriers. For this measurement the water-soluble fluorophore 1-propenyl-6-methoxyquinolinium bromide (SPQ-C3) was used. This is the same structure of SPQ-C18 but with a shorter, three carbon propenyl chain. The unquenched lifetime (τ0) of P-MQB was 26 ns, and the Stern-Volmer constant K was 140 M^−1. From these values, we calculated the kq of 5.4×10^9 M^−1 sec^−1 which is a typical value for efficient quenching.
Emission spectra and time-dependent decays were obtained (data not shown). Stern-Volmer plots were obtained in water and in a Stenfilcon A (Aspire™) contact lens by plotting the normalized intensities with respect to the added chloride concentrations.

[8] = cation-bound form (in parentheses)

SMILES: O=S(=O)(O)c1cccc2cccc(Nc3ccccc3)c12 [1,8-ANS, 1-anilino-8-naphthalene sulfonic acid]
f1 ([1]; 1-hexanol): 0.01 | f2 ([1]; 1-hexanol): 0.99 | α1 ([1]; 1-hexanol): 0.08 | α2 ([1]; 1-hexanol): 0.92 | τ1 ([1]; 1-hexanol): 1.77 ns | τ2 ([1]; 1-hexanol): 12.02 ns | τf ([1]; 1-hexanol): 11.88 ns | τα ([1]; 1-hexanol): 11.18 ns | f1 ([1]; 25/75 MeOH/H2O): 0.98 | f2 ([1]; 25/75 MeOH/H2O): 0.02 | α1 ([1]; 25/75 MeOH/H2O): 0.996 | α2 ([1]; 25/75 MeOH/H2O): 0.004 | τ1 ([1]; 25/75 MeOH/H2O): 0.52 ns | τ2 ([1]; 25/75 MeOH/H2O): 2.36 ns | τf ([1]; 25/75 MeOH/H2O): 0.54 ns | τα ([1]; 25/75 MeOH/H2O): 0.52 ns | f1 ([1]; 50/50 MeOH/H2O): 0.85 | f2 ([1]; 50/50 MeOH/H2O): 0.15 | α1 ([1]; 50/50 MeOH/H2O): 0.925 | α2 ([1]; 50/50 MeOH/H2O): 0.075 | τ1 ([1]; 50/50 MeOH/H2O): 1.09 ns | τ2 ([1]; 50/50 MeOH/H2O): 2.33 ns | τf ([1]; 50/50 MeOH/H2O): 1.27 ns | τα ([1]; 50/50 MeOH/H2O): 1.19 ns | f1 ([1]; Acetonitrile): 1.0 | α1 ([1]; Acetonitrile): 1.0 | τ1 ([1]; Acetonitrile): 7.04 ns | τf ([1]; Acetonitrile): 7.04 ns | τα ([1]; Acetonitrile): 7.04 ns | f1 ([1]; Biofinity ™ lens): 0.05 | f2 ([1]; Biofinity ™ lens): 0.95 | α1 ([1]; Biofinity ™ lens): 0.36 | α2 ([1]; Biofinity ™ lens): 0.64 | τ1 ([1]; Biofinity ™ lens): 0.40 ns | τ2 ([1]; Biofinity ™ lens): 11.00 ns | τf ([1]; Biofinity ™ lens): 11.91 ns | τα ([1]; Biofinity ™ lens): 8.76 ns | f1 ([1]; EtOH): 0.02 | f2 ([1]; EtOH): 0.98 | α1 ([1]; EtOH): 0.05 | α2 ([1]; EtOH): 0.95 | τ1 ([1]; EtOH): 3.13 ns | τ2 ([1]; EtOH): 8.83 ns | τf ([1]; EtOH): 8.74 ns | τα ([1]; EtOH): 8.57 ns | f1 ([1]; MyDay ™ lens): 0.20 | f2 ([1]; MyDay ™ lens): 0.80 | α1 ([1]; MyDay ™ lens): 0.421 | α2 ([1]; MyDay ™ lens): 0.578 | τ1 ([1]; MyDay ™ lens): 4.01 ns | τ2 ([1]; MyDay ™ lens): 12.79 ns | τf ([1]; MyDay ™ lens): 11.97 ns | τα ([1]; MyDay ™ lens): 9.70 ns

SMILES: Cc1ccc(N(CC(=O)O)CC(=O)O)c(OCCOc2cc3cc(-c4ncc(C(=O)O)o4)oc3cc2N(CC(=O)O)CC(=O)O)c1 [F ? -2]
Lifetime (ns), Ca bound form [2]: 1.68 ns | Q, Ca bound form [2]: 0.49 | Lifetime (ns), Ca free form [2]: 1.09 ns | Q, Ca free form [2]: 0.23

SMILES: O=S(=O)(O)c1cc(O)c2ccc3c(S(=O)(=O)O)cc(S(=O)(=O)O)c4ccc1c2c34 [HPTS, 8-hydroxypyrene-1,3,6-trisulfonate]
pKA [3]: 7.3

SMILES: Cc1ccc(N(CC(=O)O)CC(=O)O)c(OCCOc2cc(-c3cc4ccc(C(=O)O)cc4[nH]3)ccc2N(CC(=O)O)CC(=O)O)c1 [Indo-1]
Lifetime (ns), Ca bound form [2]: 1.66 ns | Q, Ca bound form [2]: 0.50 | Lifetime (ns), Ca free form [2]: 1.40 ns | Q, Ca free form [2]: 0.38

SMILES: O=C(O)c1ccccc1-c1c2cc(F)c(=O)cc-2oc2cc(O)c(F)cc12 [Oregon-Green]
Lifetime (ns) τA ([3]; A form (value in parentheses)): 2.47 ns | QA ([3]; A form (value in parentheses)): 0.22 | Lifetime (ns) τB ([3]; B form): 4.37 ns | QB ([3]; B form): 0.65 | pKA [3]: 1.8

SMILES: COc1cc2cc(-c3ccc(C(=O)O)cc3C(=O)O)oc2cc1N1CCOCCOCCN(c2cc3oc(-c4ccc(C(=O)O)cc4C(=O)O)cc3cc2OC)CCOCCOCC1 [PBF ?]
Lifetime (ns), cation-bound form [4, 8]: 0.72 ns | Q, cation-bound form [4, 8]: 0.72 | Lifetime (ns), free form ([4]; free form): 0.47 ns | Q, free form ([4]; free form): 0.24

SMILES: Cc1ccc(N(CC(=O)O)CC(=O)O)c(OCCOc2cc(-c3c4cc(Cl)c(=O)cc-4oc4cc(O)c(Cl)cc34)ccc2N(CC(=O)O)CC(=O)O)c1 [Pluo-3]
Lifetime (ns), Ca bound form [2]: 1.28 ns | Lifetime (ns), Ca free form [2]: 0.04 ns

f1 ([5]; in 1-hexanol): 1.0 | α1 ([5]; in 1-hexanol): 1.0 | τ1 ([5]; in 1-hexanol): 3.40 ns | τf ([5]; in 1-hexanol): 3.40 ns | τα ([5]; in 1-hexanol): 3.40 ns | f1 ([5]; in Acetonitrile): 1.0 | α1 ([5]; in Acetonitrile): 1.0 | τ1 ([5]; in Acetonitrile): 3.38 ns | τf ([5]; in Acetonitrile): 3.38 ns | τα ([5]; in Acetonitrile): 3.38 ns | f1 ([5]; in Biofinity contact lens): 1.0 | α1 ([5]; in Biofinity contact lens): 1.0 | τ1 ([5]; in Biofinity contact lens): 3.98 ns | τf ([5]; in Biofinity contact lens): 3.98 ns | τα ([5]; in Biofinity contact lens): 3.98 ns | f1 ([5]; in EtOH): 1.0 | α1 ([5]; in EtOH): 1.0 | τ1 ([5]; in EtOH): 3.28 ns | τf ([5]; in EtOH): 3.28 ns | τα ([5]; in EtOH): 3.28 ns | f1 ([5]; in MyDay contact lens, 2 hr): 0.82 | f2 ([5]; in MyDay contact lens, 2 hr): 0.18 | α1 ([5]; in MyDay contact lens, 2 hr): 0.94 | α2 ([5]; in MyDay contact lens, 2 hr): 0.07 | τ1 ([5]; in MyDay contact lens, 2 hr): 3.81 ns | τ2 ([5]; in MyDay contact lens, 2 hr): 12.15 ns | τf ([5]; in MyDay contact lens, 2 hr): 5.34 ns | τα ([5]; in MyDay contact lens, 2 hr): 4.36 ns | f1 ([5]; in MyDay contact lens, 1 day): 0.67 | f2 ([5]; in MyDay contact lens, 1 day): 0.33 | α1 ([5]; in MyDay contact lens, 1 day): 0.87 | α2 ([5]; in MyDay contact lens, 1 day): 0.13 | τ1 ([5]; in MyDay contact lens, 1 day): 4.48 ns | τ2 ([5]; in MyDay contact lens, 1 day): 14.41 ns | τf ([5]; in MyDay contact lens, 1 day): 7.76 ns | τα ([5]; in MyDay contact lens, 1 day): 5.80 ns | f1 ([5]; in Water): 0.494 | f2 ([5]; in Water): 0.51 | α1 ([5]; in Water): 0.740 | α2 ([5]; in Water): 0.260 | τ1 ([5]; in Water): 0.69 ns | τ2 ([5]; in Water): 2.02 ns | τf ([5]; in Water): 1.36 ns | τα ([5]; in Water): 1.04 ns
SMILES: CCC(=O)c1ccc2cc(N(C)C)ccc2c1 [Prodan ™]

SMILES: COc1cc(N(CC(=O)O)CC(=O)O)c2nc(COc3cc(C)ccc3N(CC(=O)O)CC(=O)O)ccc2c1 [Quin-2]
Lifetime (ns), Ca bound form [2]: 11.6 ns | Q, Ca bound form [2]: 0.14 | Lifetime (ns), Ca free form [2]: 1.35 ns | Q, Ca free form [2]: 0.03

SMILES: O=c1ccc2nc3ccc(O)cc3oc-2c1 [Resorufin]
Lifetime (ns) τA ([3]; A form (value in parentheses)): 0.45 ns | Lifetime (ns) τB ([3]; B form): 2.92 ns | pKA [3]: ~5.7

SMILES: COc1cc2cc(-c3ccc(C(=O)O)cc3C(=O)O)oc2cc1N1CCOCCOCCN(c2cc3oc(-c4ccc(C(=O)O)cc4C(=O)O)cc3cc2OC)CCOCC1 [SBF ?]
Lifetime (ns), cation-bound form [6, 8]: 0.47 ns | Q, cation-bound form [6, 8]: 0.087 | Lifetime (ns), free form ([6]; free form): 0.27 ns | Q, free form ([6]; free form): 0.645 | Kd ([6]; read-out: K (mM), binding constant): 3.8 mM

unquenched lifetime (τ0) ([7]; in solution): 26 ns
SMILES: CC=C[n+]1cccc2cc(OC)ccc21.[Br-] [SPQ-C3, 1-propenyl-6-methoxyquinolinium bromide]
bimolecular quenching constant ([7]; in Water): 5.4e+09 M⁻¹ s⁻¹ | Stern-Volmer constant K ([7]; in solution): 140 M⁻¹ | bimolecular quenching constant kq ([7]; in solution, listed as P-MQB): 5.4e+09 M⁻¹ s⁻¹

SMILES: CCN(CC)Cc1ccnc(-c2cc(CN(CC)CC)ccn2)c1.[Ru+2].c1ccc(-c2ccccn2)nc1.c1ccc(-c2ccccn2)nc1 [[Ru(deabpy)(bpy)2]^2+]
Lifetime (ns) τA ([3]; A form (value in parentheses)): 235 ns | Lifetime (ns) τB ([3]; B form): 380 ns | pKA [3]: 7.5
